The source of these data is ChEMBL document CHEMBL5465560, “Selectivity Literature for EUbOPEN Chemogenomic Library” (2024).

Test [1] addresses T1, Eukaryotic elongation factor 2 kinase (Homo sapiens) (UniProt O00418).
T1 sequence (whole entry): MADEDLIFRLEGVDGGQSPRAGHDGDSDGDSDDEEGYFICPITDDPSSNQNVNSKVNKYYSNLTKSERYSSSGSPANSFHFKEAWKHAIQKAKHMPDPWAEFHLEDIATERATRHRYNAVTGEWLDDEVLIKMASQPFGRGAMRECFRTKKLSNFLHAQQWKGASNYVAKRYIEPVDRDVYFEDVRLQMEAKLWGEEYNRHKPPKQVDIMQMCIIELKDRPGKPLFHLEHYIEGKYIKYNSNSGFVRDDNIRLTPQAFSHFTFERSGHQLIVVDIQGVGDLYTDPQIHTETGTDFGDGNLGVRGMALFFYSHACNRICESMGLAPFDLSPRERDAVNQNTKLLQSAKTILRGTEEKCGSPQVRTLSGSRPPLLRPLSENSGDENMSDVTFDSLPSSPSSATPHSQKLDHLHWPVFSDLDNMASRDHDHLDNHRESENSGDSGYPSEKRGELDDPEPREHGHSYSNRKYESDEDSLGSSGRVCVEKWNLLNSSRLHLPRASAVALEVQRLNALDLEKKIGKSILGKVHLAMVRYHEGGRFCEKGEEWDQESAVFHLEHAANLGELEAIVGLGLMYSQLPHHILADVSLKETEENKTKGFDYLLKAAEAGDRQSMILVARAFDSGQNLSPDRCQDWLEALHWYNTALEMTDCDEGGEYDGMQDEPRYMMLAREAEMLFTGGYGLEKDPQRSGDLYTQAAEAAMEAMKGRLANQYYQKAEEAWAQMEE
The experiment in a line: Selectivity interaction (Kinase panel (Z-LYTE Assay)) EUB0001632a EEF2K. To be noted: at 10 µM.

Test [2] concerns the target 5'-AMP-activated protein kinase catalytic subunit alpha-1 (Homo sapiens, UniProt Q13131). The experiment in a line: Selectivity interaction (ActivX KiNativ screen (ex vivo kinase selectivity in human PBMCs)) EUB0001619a PRKAA1. The format is cell-based. To be noted: PBMC, at 1 µM.
Test [3] concerns the target T2, Testis-specific serine/threonine-protein kinase 1 (Homo sapiens) (UniProt Q9BXA7).
T2 sequence (whole entry): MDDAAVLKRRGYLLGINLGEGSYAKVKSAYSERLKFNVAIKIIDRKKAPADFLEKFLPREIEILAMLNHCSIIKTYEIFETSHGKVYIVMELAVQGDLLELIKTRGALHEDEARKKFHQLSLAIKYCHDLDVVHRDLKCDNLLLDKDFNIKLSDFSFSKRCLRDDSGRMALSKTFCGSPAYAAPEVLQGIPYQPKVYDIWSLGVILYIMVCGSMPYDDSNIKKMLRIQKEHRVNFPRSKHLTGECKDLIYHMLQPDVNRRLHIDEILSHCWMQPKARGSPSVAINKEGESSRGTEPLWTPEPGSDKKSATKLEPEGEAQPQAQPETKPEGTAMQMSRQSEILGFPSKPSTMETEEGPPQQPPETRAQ
The test is described as follows: Selectivity interaction (KinomeScan (DiscoverX)) EUB0000666a TSSK1A. To be noted: at 10 µM.

In test [4] the target is Ephrin type-A receptor 7 (Homo sapiens) (UniProt Q15375). The test is described as follows: Selectivity interaction (KinomeScan (DiscoverX)) EUB0000045b EPHA7.
Sequence of Ephrin type-A receptor 7 (Homo sapiens) (Q15375 28-998 limits assumed): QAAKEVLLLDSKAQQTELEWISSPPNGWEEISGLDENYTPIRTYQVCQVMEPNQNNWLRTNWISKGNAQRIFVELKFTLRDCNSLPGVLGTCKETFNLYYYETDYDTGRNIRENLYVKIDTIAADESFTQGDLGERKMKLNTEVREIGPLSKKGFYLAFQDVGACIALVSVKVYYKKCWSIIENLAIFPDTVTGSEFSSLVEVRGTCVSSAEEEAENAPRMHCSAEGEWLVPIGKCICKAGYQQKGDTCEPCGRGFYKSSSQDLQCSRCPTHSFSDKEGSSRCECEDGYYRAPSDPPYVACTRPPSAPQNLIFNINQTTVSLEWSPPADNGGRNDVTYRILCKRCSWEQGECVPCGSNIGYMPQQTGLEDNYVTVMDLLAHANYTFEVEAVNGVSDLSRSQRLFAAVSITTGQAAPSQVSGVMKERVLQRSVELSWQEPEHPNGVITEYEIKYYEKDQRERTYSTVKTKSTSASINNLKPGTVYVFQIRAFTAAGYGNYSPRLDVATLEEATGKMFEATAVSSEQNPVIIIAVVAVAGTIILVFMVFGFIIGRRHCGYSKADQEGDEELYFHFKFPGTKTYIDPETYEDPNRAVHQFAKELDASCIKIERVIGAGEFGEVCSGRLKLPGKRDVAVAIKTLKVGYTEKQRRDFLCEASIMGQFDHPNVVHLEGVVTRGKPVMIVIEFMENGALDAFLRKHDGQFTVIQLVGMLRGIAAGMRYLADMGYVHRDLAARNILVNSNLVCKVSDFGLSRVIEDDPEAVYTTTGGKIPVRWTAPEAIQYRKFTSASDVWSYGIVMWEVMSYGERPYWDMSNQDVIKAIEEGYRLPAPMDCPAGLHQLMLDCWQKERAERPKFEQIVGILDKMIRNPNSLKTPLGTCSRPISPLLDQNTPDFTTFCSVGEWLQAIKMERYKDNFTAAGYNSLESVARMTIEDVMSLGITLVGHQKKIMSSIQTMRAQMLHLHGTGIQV
Test [5] concerns the target Fibroblast growth factor receptor 3 (Homo sapiens, UniProt P22607). The experiment in a line: Selectivity interaction (ProQinase) EUB0000171b FGFR3. To be noted: at 1 µM.
The subject of test [6] is Tyrosine-protein kinase ABL1 (Homo sapiens), P00519 [H396P]. The test is described as follows: Selectivity interaction (KinomeScan (DiscoverX)) EUB0000618a ABL1. To be noted: at 10 µM.
The target of test [7] is Transient receptor potential cation channel subfamily M member 6 (Homo sapiens) (UniProt Q9BX84). The experiment in a line: Selectivity interaction (KinomeScan (DiscoverX)) EUB0000092b TRPM6. To be noted: at 10 µM.
Sequence of Transient receptor potential cation channel subfamily M member 6 (Homo sapiens) (Q9BX84 whole entry): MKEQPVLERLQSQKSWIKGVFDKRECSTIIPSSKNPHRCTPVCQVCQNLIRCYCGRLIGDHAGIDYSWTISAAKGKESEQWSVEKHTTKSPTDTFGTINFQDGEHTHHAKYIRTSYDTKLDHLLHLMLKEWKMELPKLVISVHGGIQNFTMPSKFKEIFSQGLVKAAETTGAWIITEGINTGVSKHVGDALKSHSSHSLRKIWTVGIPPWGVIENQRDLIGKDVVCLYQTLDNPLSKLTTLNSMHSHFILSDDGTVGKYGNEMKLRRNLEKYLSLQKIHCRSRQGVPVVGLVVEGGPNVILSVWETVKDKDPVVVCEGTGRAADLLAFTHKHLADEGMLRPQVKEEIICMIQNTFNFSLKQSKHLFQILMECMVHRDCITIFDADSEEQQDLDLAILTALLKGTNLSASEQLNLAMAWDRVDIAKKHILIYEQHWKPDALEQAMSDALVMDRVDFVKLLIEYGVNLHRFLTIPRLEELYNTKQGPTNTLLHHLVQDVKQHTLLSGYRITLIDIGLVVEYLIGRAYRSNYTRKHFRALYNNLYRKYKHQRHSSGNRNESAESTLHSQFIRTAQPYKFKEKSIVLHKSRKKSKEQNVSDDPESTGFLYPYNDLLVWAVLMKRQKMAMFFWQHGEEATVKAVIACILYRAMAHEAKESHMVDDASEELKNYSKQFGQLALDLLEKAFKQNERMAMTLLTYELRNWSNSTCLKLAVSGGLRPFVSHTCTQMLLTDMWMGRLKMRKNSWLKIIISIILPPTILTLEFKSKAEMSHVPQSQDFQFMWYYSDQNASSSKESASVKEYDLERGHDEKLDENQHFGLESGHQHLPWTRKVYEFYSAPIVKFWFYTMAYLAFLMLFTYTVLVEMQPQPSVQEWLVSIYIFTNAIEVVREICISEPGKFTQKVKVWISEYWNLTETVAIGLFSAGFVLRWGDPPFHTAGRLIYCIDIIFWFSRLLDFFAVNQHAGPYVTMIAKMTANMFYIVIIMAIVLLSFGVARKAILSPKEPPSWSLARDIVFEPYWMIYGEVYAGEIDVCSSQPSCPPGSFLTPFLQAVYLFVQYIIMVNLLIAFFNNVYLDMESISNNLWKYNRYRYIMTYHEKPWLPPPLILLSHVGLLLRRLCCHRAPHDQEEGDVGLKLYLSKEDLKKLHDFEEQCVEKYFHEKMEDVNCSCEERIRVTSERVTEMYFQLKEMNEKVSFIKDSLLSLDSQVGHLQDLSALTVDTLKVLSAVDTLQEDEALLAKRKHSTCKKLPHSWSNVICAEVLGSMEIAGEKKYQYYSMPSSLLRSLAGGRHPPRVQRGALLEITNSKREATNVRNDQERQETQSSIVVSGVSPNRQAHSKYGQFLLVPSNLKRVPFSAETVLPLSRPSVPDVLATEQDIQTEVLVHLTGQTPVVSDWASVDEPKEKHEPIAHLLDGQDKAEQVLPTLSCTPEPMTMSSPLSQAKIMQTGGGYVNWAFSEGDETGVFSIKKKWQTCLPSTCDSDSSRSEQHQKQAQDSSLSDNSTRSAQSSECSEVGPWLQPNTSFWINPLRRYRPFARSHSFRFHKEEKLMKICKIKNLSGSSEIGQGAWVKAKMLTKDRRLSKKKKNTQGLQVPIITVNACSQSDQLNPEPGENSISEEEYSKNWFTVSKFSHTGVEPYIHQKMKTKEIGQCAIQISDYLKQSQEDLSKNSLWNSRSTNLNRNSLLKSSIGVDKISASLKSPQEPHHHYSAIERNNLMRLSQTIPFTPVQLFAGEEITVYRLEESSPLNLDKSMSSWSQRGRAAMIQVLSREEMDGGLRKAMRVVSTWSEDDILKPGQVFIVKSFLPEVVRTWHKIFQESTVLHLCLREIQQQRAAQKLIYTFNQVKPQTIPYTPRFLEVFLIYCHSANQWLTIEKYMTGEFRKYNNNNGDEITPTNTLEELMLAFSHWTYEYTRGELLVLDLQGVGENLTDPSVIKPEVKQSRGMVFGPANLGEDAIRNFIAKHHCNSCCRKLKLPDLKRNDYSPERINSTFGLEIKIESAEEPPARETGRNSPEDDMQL
The target of test [8] is T3, Histone-lysine N-methyltransferase SETD7 (Homo sapiens) (UniProt Q8WTS6).
T3 sequence (whole entry): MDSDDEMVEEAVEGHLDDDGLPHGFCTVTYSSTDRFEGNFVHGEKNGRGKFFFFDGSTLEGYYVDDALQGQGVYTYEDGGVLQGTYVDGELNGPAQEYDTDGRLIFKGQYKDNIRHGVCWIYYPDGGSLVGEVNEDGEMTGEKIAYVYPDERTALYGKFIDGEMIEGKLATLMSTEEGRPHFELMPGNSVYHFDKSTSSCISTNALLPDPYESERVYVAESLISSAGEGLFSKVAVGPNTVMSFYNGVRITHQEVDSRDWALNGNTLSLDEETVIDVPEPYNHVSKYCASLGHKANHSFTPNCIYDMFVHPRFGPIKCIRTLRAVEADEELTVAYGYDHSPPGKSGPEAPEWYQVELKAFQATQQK
The experiment in a line: Selectivity interaction (Methyltransferase screen (radiometric assays, panel of 8 PRMTs, 21 protein lysine methyltransferases, 3 DNA methyltransferases, and one RNA methyltransferase)) EUB0000271b SETD7.

In test [9] the target is T4, Mitogen-activated protein kinase kinase kinase 7 (Homo sapiens) (UniProt O43318).
T4 sequence (whole entry): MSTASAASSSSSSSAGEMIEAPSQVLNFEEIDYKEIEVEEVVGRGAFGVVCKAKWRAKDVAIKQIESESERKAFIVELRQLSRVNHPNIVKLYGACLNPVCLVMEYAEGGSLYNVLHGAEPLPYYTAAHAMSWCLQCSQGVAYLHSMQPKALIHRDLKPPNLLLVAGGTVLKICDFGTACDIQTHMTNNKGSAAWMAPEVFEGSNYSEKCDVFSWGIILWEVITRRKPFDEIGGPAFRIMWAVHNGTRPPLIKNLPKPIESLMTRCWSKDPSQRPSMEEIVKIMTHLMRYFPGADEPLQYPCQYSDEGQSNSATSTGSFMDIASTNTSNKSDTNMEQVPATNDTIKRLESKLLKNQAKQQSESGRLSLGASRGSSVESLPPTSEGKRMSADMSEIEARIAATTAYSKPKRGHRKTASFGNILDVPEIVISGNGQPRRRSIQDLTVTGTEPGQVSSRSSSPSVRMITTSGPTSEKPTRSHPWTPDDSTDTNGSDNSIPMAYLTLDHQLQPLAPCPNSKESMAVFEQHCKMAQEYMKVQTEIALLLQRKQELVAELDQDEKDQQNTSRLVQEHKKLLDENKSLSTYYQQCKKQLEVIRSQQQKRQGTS
The experiment in a line: Selectivity interaction (KinomeScan (DiscoverX)) EUB0000229b MAP3K7. To be noted: at 10 µM.

Sequence of 5'-AMP-activated protein kinase catalytic subunit alpha-1 (Q13131 whole entry, looked up): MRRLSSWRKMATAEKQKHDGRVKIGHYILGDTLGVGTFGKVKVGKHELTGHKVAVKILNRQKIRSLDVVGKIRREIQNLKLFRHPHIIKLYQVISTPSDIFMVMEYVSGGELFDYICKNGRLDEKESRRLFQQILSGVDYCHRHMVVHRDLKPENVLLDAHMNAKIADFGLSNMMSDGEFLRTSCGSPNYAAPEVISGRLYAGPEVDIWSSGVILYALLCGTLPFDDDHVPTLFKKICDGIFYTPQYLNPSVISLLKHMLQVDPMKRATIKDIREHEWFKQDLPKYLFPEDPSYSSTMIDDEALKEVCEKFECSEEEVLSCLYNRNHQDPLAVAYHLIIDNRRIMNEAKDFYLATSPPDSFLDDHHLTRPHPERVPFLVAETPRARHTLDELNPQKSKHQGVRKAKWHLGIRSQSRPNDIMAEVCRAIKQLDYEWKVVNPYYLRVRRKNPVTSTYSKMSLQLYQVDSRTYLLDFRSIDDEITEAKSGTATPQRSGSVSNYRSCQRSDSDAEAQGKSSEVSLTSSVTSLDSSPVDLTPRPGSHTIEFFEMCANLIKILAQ
Sequence of Fibroblast growth factor receptor 3 (P22607 23-806 limits assumed): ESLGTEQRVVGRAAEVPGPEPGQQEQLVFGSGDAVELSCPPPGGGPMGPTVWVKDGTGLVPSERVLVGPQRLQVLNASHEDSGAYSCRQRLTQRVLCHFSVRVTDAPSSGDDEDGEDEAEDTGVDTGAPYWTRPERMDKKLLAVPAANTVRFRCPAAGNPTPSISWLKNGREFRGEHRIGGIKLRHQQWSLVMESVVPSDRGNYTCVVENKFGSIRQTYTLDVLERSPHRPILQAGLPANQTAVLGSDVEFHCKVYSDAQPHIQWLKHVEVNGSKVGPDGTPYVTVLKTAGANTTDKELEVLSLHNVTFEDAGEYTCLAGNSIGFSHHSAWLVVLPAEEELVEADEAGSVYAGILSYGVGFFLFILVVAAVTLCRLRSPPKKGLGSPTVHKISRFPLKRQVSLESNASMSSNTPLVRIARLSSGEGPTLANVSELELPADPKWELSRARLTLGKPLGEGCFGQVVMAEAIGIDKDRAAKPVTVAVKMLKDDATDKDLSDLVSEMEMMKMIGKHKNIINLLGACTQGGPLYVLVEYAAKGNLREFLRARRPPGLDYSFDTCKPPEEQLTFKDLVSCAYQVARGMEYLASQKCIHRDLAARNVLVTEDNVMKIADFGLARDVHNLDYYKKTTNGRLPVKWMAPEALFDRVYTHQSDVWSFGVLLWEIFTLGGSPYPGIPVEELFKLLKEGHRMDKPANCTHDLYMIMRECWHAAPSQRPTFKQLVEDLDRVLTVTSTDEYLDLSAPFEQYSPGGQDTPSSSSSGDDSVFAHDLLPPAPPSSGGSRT

In the case of `Cn1cc(-n2cnc3c(NCc4nc5cc(Cl)c(Cl)cc5[nH]4)nc(N4CCOCC4)nc32)cn1`, the % of control in test [1] amounted to 1.73%.

In turn, `N#Cc1cccc(-c2c[nH]c3ncnc(N4CCOCC4)c23)c1` gave a % of inhibition in test [2] of 16%.

In turn, `O=C(NOC[C@H](O)CO)c1ccc(F)c(F)c1Nc1ccc(I)cc1F` returned a % of control in [3] of 100%.

`C=CC(=O)Nc1cc(-n2c(=O)ccc3cnc4ccc(-c5ccc(NS(C)(=O)=O)cc5)cc4c32)ccc1C`: the % of control in test [4] (at 1 µM) amounted to 100%; in [4] (at 10 µM) it was 85%.

For `C=CC(=O)Nc1cccc(C(=O)Nc2ccc(Nc3cc(-c4[nH]c(SC)nc4C)ccn3)cc2)c1`, in [5], the % of control was found to be 88%.

With `O[C@H]1CC[C@H](Nc2ncc3nc(Nc4c(F)cc(F)cc4F)n([C@H]4CCOC4)c3n2)CC1`, the % of control in test [6] was determined as 31%.

`CCC(=O)N1CCN(c2ccc(-n3c(=O)ccc4cnc5ccc(-c6cnc7ccccc7c6)cc5c43)cc2C(F)(F)F)CC1` gave a % of control in test [7] of 100%.

On to `Cc1cc(C)cc([C@@H]2c3cc(C)ccc3NC(=O)CN2C(=O)c2ccc(Br)s2)c1`, for which the % of activity in test [8] (at 1 µM) was determined as 95.3%; in test [8] (at 10 µM) it was 95.7%.

In test [9], `COc1cc(N(C)c2ccnc3ccc(C(F)(F)F)cc23)cc(OC)c1OC` registered a % binding of 80%.
